The structures appear in SMILES notation. Where “and” joins values, the source holds several entries; their conditions need not be identical. Equal values may be shown once. Bounds are passed on as bounds.

Test [1] has as its target Vasopressin V2 receptor (Homo sapiens, UniProt P30518).
Test [2] deals with T1, Type-1 angiotensin II receptor (Homo sapiens, UniProt P30556).
T1 sequence (P30556 whole entry): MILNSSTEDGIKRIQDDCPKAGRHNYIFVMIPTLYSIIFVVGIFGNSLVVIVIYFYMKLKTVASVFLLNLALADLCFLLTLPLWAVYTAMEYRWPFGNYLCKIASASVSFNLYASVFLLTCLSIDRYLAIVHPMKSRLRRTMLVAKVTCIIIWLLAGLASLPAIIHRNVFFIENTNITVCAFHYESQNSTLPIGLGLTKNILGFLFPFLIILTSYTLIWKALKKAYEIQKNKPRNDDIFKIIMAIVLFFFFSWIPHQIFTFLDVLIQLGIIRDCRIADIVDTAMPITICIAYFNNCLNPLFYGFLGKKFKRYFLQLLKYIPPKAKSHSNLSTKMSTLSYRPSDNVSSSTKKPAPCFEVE

Test [3] deals with T2, Thromboxane A2 receptor (Homo sapiens, UniProt P21731).
T2 sequence (P21731 whole entry): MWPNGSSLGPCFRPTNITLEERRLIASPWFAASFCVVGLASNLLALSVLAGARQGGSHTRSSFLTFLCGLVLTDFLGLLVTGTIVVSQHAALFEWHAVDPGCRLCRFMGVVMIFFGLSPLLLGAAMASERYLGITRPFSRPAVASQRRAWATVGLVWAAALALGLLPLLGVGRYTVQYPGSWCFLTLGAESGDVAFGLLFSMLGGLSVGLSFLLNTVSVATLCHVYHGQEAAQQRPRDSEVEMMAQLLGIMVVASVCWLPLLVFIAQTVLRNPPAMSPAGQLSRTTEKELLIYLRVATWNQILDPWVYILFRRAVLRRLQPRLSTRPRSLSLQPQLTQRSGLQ

Test [4] concerns the target Glutamate receptor ionotropic, NMDA 1 (Rattus norvegicus, UniProt P35439).
For test [5], the target named is cGMP-inhibited 3',5'-cyclic phosphodiesterase 3A (Homo sapiens, UniProt Q14432). Type of test: functional.
The target in test [6] is D(3) dopamine receptor (Homo sapiens, UniProt P35462).
The target of test [7] is Delta-type opioid receptor (Homo sapiens, UniProt P41143).
Test [8] concerns the target T3, Cholecystokinin receptor type A (Homo sapiens, UniProt P32238).
T3 sequence (P32238 whole entry): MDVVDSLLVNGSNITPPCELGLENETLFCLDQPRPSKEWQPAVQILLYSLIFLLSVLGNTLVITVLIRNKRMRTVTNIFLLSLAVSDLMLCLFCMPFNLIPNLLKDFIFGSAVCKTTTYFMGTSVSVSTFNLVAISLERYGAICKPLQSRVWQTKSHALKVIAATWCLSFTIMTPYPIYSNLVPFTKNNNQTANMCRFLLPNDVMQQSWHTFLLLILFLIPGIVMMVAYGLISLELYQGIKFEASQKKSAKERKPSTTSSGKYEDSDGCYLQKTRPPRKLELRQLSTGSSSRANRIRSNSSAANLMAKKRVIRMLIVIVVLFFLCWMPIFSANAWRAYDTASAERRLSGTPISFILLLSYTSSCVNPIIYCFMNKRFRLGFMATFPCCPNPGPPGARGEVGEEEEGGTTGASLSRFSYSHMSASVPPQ

Test [9] addresses T4, 5-hydroxytryptamine receptor 3A (Homo sapiens, UniProt P46098).
T4 sequence (P46098 whole entry): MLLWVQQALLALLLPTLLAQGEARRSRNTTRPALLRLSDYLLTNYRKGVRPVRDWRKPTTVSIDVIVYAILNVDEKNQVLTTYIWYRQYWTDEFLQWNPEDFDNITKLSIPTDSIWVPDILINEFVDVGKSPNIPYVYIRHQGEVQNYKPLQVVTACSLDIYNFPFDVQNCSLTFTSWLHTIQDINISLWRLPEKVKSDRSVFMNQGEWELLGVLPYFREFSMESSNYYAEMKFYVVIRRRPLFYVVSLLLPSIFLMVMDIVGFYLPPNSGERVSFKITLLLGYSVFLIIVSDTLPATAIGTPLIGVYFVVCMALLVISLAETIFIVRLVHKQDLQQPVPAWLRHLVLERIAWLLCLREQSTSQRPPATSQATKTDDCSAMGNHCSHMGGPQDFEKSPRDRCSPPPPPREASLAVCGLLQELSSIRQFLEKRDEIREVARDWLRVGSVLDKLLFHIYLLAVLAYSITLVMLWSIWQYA
Type of test: functional.

Test [10] has as its target Sodium-dependent noradrenaline transporter (Homo sapiens, UniProt P23975).
For test [11], the target named is Sodium-dependent dopamine transporter (Homo sapiens, UniProt Q01959).
For test [12], the target named is T5, 5-hydroxytryptamine receptor 2C (Homo sapiens, UniProt P28335).
T5 sequence (P28335 whole entry): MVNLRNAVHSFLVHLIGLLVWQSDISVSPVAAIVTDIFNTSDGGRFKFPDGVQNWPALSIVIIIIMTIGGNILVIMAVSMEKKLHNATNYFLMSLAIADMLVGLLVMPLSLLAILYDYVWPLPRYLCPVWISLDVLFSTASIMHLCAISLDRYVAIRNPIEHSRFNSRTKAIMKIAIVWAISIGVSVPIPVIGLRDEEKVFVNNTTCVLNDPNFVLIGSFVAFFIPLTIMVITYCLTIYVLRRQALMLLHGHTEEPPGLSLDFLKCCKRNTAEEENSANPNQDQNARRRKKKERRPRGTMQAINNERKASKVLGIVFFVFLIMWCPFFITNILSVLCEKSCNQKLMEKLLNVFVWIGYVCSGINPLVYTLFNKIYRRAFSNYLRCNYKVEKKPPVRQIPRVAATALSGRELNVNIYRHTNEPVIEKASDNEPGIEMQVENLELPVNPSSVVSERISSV

Test [13] has as its target T6, B2 bradykinin receptor (Homo sapiens, UniProt P30411).
T6 sequence (P30411 whole entry): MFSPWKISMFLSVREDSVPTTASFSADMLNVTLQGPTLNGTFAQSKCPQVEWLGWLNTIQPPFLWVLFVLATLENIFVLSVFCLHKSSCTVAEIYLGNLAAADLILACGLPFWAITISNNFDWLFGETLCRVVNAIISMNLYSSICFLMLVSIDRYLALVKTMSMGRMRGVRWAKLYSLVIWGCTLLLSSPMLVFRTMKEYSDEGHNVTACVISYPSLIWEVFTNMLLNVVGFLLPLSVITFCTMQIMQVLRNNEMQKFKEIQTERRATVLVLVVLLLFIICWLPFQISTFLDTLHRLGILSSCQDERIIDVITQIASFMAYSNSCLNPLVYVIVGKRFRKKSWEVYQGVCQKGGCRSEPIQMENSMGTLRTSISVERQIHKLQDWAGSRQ
Further: assay procedure not described here.

Sequence of Sodium-dependent noradrenaline transporter (P23975 whole entry): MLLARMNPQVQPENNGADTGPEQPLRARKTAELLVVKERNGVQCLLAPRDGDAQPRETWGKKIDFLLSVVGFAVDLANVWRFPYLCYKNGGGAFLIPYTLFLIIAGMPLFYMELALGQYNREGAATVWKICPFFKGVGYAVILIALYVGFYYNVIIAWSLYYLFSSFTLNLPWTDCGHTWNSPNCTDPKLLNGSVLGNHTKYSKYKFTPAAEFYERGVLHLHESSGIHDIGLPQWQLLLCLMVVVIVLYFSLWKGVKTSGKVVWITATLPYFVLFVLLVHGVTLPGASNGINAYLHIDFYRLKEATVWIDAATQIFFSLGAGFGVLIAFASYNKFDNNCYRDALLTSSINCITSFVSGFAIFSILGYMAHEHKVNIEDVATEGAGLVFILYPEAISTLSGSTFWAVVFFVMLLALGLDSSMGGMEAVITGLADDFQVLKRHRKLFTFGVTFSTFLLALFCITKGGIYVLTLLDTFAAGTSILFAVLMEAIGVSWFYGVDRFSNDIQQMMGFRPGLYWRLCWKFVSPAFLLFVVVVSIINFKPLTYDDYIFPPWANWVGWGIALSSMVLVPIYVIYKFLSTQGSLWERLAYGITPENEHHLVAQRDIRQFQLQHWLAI
Sequence of Delta-type opioid receptor (P41143 whole entry): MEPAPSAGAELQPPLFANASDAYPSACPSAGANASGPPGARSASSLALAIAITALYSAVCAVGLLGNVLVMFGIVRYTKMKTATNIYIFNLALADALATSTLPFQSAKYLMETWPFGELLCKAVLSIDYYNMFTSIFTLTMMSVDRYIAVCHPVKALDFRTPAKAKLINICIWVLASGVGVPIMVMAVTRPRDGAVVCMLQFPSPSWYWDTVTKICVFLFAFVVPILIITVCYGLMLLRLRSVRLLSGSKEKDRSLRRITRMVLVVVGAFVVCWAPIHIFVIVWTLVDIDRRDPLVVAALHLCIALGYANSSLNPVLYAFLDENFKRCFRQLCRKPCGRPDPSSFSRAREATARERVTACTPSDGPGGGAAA
Sequence of cGMP-inhibited 3',5'-cyclic phosphodiesterase 3A (Q14432 whole entry): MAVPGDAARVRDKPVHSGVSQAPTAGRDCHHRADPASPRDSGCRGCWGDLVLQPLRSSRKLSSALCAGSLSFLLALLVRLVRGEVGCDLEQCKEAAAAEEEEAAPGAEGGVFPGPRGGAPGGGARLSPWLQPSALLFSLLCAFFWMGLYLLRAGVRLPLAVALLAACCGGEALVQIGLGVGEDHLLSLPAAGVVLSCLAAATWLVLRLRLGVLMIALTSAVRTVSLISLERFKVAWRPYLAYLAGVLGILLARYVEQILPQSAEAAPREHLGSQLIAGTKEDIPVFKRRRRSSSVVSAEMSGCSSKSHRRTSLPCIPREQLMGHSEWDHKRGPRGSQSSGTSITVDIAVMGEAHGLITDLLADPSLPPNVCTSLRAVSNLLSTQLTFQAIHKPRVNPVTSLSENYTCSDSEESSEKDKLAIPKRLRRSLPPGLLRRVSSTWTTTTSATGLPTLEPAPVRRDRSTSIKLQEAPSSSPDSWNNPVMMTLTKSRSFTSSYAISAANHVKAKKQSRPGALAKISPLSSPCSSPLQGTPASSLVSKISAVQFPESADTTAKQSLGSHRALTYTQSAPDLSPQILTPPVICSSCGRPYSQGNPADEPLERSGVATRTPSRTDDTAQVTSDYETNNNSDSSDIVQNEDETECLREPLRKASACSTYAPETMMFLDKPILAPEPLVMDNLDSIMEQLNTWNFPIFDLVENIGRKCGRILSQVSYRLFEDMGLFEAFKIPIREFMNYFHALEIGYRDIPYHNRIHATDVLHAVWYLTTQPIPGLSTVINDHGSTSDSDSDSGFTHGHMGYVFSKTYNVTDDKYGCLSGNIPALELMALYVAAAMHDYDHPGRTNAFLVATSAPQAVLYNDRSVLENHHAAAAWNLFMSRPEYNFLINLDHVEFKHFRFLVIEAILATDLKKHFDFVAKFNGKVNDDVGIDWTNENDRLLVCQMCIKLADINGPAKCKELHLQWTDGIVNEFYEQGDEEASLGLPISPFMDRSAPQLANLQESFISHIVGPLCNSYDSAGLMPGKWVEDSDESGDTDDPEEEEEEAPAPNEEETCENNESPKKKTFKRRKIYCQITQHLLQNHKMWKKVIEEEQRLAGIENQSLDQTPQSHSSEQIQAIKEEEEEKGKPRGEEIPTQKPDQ
Sequence of Vasopressin V2 receptor (P30518 whole entry): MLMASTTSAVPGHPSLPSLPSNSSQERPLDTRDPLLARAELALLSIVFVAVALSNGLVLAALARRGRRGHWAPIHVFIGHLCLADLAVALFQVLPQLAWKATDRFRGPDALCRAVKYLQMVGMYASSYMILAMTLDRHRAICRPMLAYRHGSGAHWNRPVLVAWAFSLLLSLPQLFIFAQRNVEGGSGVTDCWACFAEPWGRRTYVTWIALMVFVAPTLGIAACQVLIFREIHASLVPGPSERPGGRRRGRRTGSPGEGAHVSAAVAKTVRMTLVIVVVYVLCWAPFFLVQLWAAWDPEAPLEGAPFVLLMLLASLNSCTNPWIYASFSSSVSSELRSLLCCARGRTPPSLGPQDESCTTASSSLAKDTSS
Sequence of D(3) dopamine receptor (P35462 whole entry): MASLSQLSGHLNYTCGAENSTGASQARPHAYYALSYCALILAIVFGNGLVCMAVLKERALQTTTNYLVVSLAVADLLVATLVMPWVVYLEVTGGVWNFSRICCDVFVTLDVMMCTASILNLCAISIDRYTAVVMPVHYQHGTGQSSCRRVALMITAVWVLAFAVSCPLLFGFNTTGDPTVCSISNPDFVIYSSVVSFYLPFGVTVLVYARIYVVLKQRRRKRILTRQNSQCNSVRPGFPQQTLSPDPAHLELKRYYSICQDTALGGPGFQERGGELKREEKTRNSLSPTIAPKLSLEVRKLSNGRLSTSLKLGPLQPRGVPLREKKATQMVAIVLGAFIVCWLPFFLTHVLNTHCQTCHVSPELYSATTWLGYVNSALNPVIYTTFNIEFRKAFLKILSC
Sequence of Sodium-dependent dopamine transporter (Q01959 whole entry): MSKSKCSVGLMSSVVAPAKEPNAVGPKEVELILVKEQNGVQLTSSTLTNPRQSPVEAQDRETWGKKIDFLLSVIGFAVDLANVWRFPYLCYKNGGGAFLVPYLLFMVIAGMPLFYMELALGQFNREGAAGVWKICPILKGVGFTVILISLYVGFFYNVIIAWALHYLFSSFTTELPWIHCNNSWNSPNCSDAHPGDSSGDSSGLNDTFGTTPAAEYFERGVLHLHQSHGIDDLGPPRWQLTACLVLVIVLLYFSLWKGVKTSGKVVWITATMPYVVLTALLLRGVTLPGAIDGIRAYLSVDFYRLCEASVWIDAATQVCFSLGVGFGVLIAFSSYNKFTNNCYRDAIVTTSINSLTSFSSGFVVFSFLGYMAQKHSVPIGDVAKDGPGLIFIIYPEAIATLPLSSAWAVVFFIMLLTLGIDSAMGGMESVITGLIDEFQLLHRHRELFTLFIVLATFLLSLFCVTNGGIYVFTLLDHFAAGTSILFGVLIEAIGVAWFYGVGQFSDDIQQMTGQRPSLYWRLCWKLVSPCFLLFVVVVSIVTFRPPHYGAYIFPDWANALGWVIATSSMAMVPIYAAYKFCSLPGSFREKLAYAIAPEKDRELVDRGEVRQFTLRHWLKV

For `COCC1=C(C(=O)O)N2C(=O)[C@@H](NC(=O)/C(=N\OC)c3csc(N)n3)[C@H]2SC1` [CEFPODOXIME], the AC50 in test [1], in [2], in [3], in [4], in test [5] and in test [6] was more than 30 µM throughout. For the same molecule, the AC50 was more than 30 µM in test [7]; more than 30 µM in test [8]; more than 30 µM in test [9]; more than 30 µM in test [10]; more than 30 µM in [11]; 0.12 µM in test [12]. Moreover, the concentration at half-maximal activity (AC50) in [13] is more than 30 µM.

Consider `C[C@H](Cc1ccc(O)c(O)c1)[C@@H](C)Cc1ccc(O)c(O)c1` [MASOPROCOL], for which the AC50 in [1] was more than 10 µM; in [2], more than 10 µM; in test [3], > 10 µM and 29 µM (2×); in test [4] it was more than 10 µM; in [5], 12 µM and 23 µM and 19 µM; in test [6] it was 1.8 µM. Moreover, the concentration at half-maximal activity (AC50) in [7] was more than 30 µM; in test [8], more than 10 µM; in test [9] it was more than 30 µM; in test [10], 20.6 µM and 20 µM (2×); in test [11], 3.4 µM and 5.4 µM and 5.2 µM; in test [12] it was more than 30 µM. The molecule also had a concentration at half-maximal activity (AC50) in test [13] of more than 10 µM.

Consider `CC(C(=O)O)c1ccc(-c2ccccc2)c(F)c1` (configuration not stated) [FLURBIPROFEN], for which the AC50 was more than 10 µM in [1]; more than 10 µM in test [2]; more than 10 µM in test [3]; more than 10 µM in test [4]; more than 30 µM in test [5]; 0.086 µM in test [6]. Moreover, the AC50 is more than 30 µM in [7]; more than 10 µM in [8]; more than 10 µM in test [9]; more than 10 µM in test [10]; more than 10 µM in [11]; 2.6 µM in [12]. This molecule registered a concentration at half-maximal activity (AC50) in test [13] of more than 10 µM.

Consider `CC(C)(C)C(=O)OCC(=O)[C@H]1CC[C@H]2[C@@H]3CCC4=CC(=O)CC[C@]4(C)[C@H]3CC[C@]12C` [DESOXYCORTICOSTERONE PIVALATE], for which the AC50 in [1] was more than 10 µM; in [2], more than 10 µM; in test [3] it was more than 10 µM; in test [4], more than 10 µM; in test [5] it was more than 30 µM; in test [6] it was more than 30 µM. In addition, the AC50 in test [7] was more than 30 µM; in test [8], more than 10 µM; in test [9] it was more than 30 µM; in [10], more than 10 µM; in test [11], more than 10 µM; in [12], more than 30 µM. Moreover, the AC50 in test [13] was more than 10 µM.

As to `CCOC(=O)C1=C(C)NC(C)=C(C(=O)OC)C1c1cccc([N+](=O)[O-])c1` (configuration not stated) [NITRENDIPINE], the AC50 was more than 30 µM in [1]; more than 30 µM in test [2]; more than 30 µM in [3]; more than 10 µM in test [4]; more than 30 µM in test [5]; more than 30 µM in [6]. Besides, the AC50 in test [7] was more than 30 µM; in test [8] it was more than 30 µM; in test [9], more than 30 µM; in test [10], more than 30 µM; in test [11], 32.2 µM; in [12], more than 30 µM. In addition, the half-maximal activity concentration (AC50) in test [13] is more than 30 µM.

Consider `[H]/N=C(/N)N/C(=N/[H])NCCc1ccccc1` [PHENFORMIN], for which the AC50 was more than 30 µM in [1]; more than 30 µM in test [2]; more than 30 µM in [3]; 2.32 µM in test [4]; 22 µM in test [5]; more than 30 µM in test [6]. Further, the AC50 was more than 30 µM in [7]; more than 30 µM in test [8]; more than 30 µM in test [9]; 18.3 µM in [10]; 25.2 µM in [11]; more than 30 µM in [12]. For the same molecule, the AC50 in [13] was more than 30 µM.

With `CCC(=O)O[C@H]1CC[C@H]2[C@@H]3CCC4=CC(=O)CC[C@]4(C)[C@H]3CC[C@]12C` [TESTOSTERONE PROPIONATE], the AC50 is more than 10 µM in test [1]; more than 10 µM in test [2]; more than 10 µM in test [3]; more than 10 µM in test [4]; more than 10 µM in test [5]; more than 30 µM in [6]. Moreover, the AC50 in [7] was more than 30 µM; in [8], more than 10 µM; in [9] it was more than 30 µM; in test [10] it was more than 10 µM; in test [11], more than 10 µM; in [12], more than 30 µM. Moreover, the AC50 in test [13] is more than 10 µM.

For `CCCCC(=O)O[C@]1(C(=O)CO)[C@@H](C)C[C@H]2[C@@H]3CCC4=CC(=O)C=C[C@]4(C)[C@@]3(F)[C@@H](O)C[C@@]21C` [BETAMETHASONE VALERATE], the AC50 in test [1] is more than 30 µM; in [2], more than 30 µM; in test [3], more than 30 µM; in [4] it was more than 10 µM; in [5] it was more than 30 µM; in test [6] it was more than 30 µM. Also, the AC50 in test [7], in [8], in test [9], in [10], in [11] and in test [12] was more than 30 µM throughout. In addition, in test [13], the AC50 is more than 30 µM.

As for `C#C[C@]1(OC(C)=O)CC[C@H]2[C@@H]3CCC4=C/C(=N/O)CC[C@@H]4[C@H]3CC[C@@]21CC` [NORGESTIMATE], the AC50 in [1] is more than 30 µM; in test [2] it was 22 µM; in [3], more than 30 µM; in test [4], more than 30 µM; in test [5] it was more than 30 µM; in [6], 29 µM. Besides, the half-maximal activity concentration (AC50) was more than 30 µM in test [7]; more than 30 µM in [8]; more than 30 µM in test [9]; 28 µM in test [10]; 10 µM in test [11]; more than 30 µM in test [12]. Moreover, in test [13], the half-maximal activity concentration (AC50) is more than 30 µM.

Usually AC50 stands for the concentration at which the activity in the assay is half-maximal. A lower AC50 goes with greater potency.

Source of the values: ChEMBL document CHEMBL5291721, “A preclinical secondary pharmacology resource illuminates target-adverse drug reaction associations of marketed drugs” (Nat Commun, 2023).
